According to US20060069132A1, “Azolecarboxamide herbicides” (priority 2004, published 2006):

Experiments:
cocklebur = assay: Test B pre-/postemergence herbicide test; type: in vivo, Xanthium strumarium
Method in brief: (§1)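 Test chemicals in a non-phytotoxic solvent mixture with surfactant were applied preemergence to seeded species and postemergence to plants 2-18 cm tall (1- to 4-leaf stage); rice and barnyardgrass were also tested in a flooded paddy at the 2-leaf stage. Visual rating versus controls after 13-15 days in greenhouse, scale 0 (no effect) to 100 (complete control).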

barnyardgrass [1] = assay: Test B flooded paddy test; type: in vivo, Echinochloa crus-galli; settings: 1000 g ai/ha, scale 0 to 100 (0 no effect, 100 complete control)
Method in brief: (§2)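 Paddy species grown to the 2-leaf stage under flooding; blackgrass sprayed postemergence at 2–18 cm (1- to 4-leaf stage). Plants kept in a greenhouse for 13 to 15 days, then visually rated against controls on 0 (no effect) to 100 (complete control).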

corn = assay: Test B pre-/postemergence herbicide test; type: in vivo, Zea mays
Method in brief: as §1

morningglory = assay: Test B pre-/postemergence herbicide test; type: in vivo, Ipomoea coccinea
Method in brief: as §1

ducksalad = assay: Test B flooded paddy test; type: in vivo, Heteranthera limosa; settings: 1000 g ai/ha, scale 0 to 100 (0 no effect, 100 complete control)
Method in brief: as §2

wild oat = assay: Test B postemergence herbicide test; type: in vivo, Avena fatua; settings: scale 0 (no effect) to 100 (complete control)
Method in brief: (§3)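 Postemergence plants were sprayed with formulated test chemicals at 2 to 18 cm height (1- to 4-leaf stage); paddy species were grown to the 2-leaf stage. After 13 to 15 days in a greenhouse, injury was rated visually against untreated controls on a 0–100 scale (0 = no effect, 100 = complete control).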

large crabgrass = assay: Test B pre-/postemergence herbicide test; type: in vivo, Digitaria sanguinalis
Method in brief: as §1

barnyardgrass [2] = assay: Test B pre-/postemergence herbicide test; type: in vivo, Echinochloa crus-galli
Method in brief: as §1

wheat = assay: Test B postemergence herbicide test; type: in vivo, Triticum aestivum; design: key to Wheat plant response rating: 0 = no effect, 100 = complete control
Method in brief: as §3

lambsquarters = assay: Test B pre-/postemergence herbicide test; type: in vivo, Chenopodium album
Method in brief: as §1

Surinam grass = assay: Test B pre-/postemergence herbicide test; type: in vivo, Urochloa decumbens
Method in brief: as §1

[3] = system: small flower umbrella sedge; assay: Test B flooded paddy test; type: in vivo, Cyperus difformis; settings: 1000 g ai/ha, scale 0 to 100 (0 no effect, 100 complete control)
Method in brief: as §2

pigweed = assay: Test B pre-/postemergence herbicide test; type: in vivo, Amaranthus retroflexus
Method in brief: as §1

rice = assay: Test B flooded paddy test; type: in vivo, Oryza sativa; settings: 1000 g ai/ha, scale 0 to 100 (0 no effect, 100 complete control)
Method in brief: as §2

giant foxtail = assay: Test B pre-/postemergence herbicide test; type: in vivo, Setaria faberi
Method in brief: as §1

blackgrass = assay: Test B postemergence herbicide test; type: in vivo, Alopecurus myosuroides
Method in brief: as §2

[4] = 125 g ai/ha, 0 is no effect, 100 is complete control, preemergence
[5] = 125 g ai/ha, visual rating, scale 0 (no effect) to 100 (complete control), postemergence
[6] = postemergence, 500 g ai/ha, scale 0 to 100, 0 is no effect, 100 is complete control
[7] = Postemergence, 500 g ai/ha, scale 0 (no effect) to 100 (complete control)
[8] = Postemergence, 125 g ai/ha, scale 0 (no effect) to 100 (complete control)
[9] = Postemergence, 500 g ai/ha, visual rating after 13 to 15 days, scale 0 (no effect) to 100 (complete control)
[10] = Preemergence, 500 g ai/ha, scale 0 to 100
[11] = preemergence, 125 g ai/ha, 0 to 100 scale, 0 is no effect, 100 is complete control

## CCOC(=O)c1cccc(NC(=O)c2nn(C(C)(C)CC)nc2CC)c1 [Compound 375]
cocklebur; [4]
  Plant response rating (0 to 100 scale), Cocklebur: 0
cocklebur; [5]
  Cocklebur plant response rating: 30
cocklebur; [6]
  Cocklebur plant response rating: 60
Barnyardgrass [1]
  Barnyardgrass plant response rating: 40
corn; [4]
  Plant response rating (0 to 100 scale), Corn: 0
corn; [5]
  Corn plant response rating: 20
corn; [6]
  Corn plant response rating: 40
morningglory; [4]
  Plant response rating (0 to 100 scale), Morningglory: 10
morningglory; [5]
  Morningglory plant response rating: 20
morningglory; [7]
  Morningglory plant response rating: 40
ducksalad
  Ducksalad plant response rating: 20
Wild oat; 125 g ai/ha, visual rating, postemergence
  Oat, Wild plant response rating: 40
Wild oat; Postemergence, 500 g ai/ha
  Oat, Wild plant response rating: 50
Large crabgrass; [4]
  Plant response rating (0 to 100 scale), Crabgrass, Large: 20
Large crabgrass; [5]
  Crabgrass, Large plant response rating: 20
Large crabgrass; [6]
  Crabgrass, Large plant response rating: 40
Barnyardgrass [2]; [4]
  Plant response rating (0 to 100 scale), Barnyardgrass: 20
Barnyardgrass [2]; [5]
  Barnyardgrass plant response rating: 30
Barnyardgrass [2]; [6]
  Barnyardgrass plant response rating: 70
wheat; [5]
  Wheat plant response rating: 30
wheat; 500 g ai/ha, scale 0 to 100, 0 no effect, 100 complete control, preemergence
  Wheat plant response rating: 30
wheat; [7]
  Wheat plant response rating: 40
lambsquarters; [4]
  Plant response rating (0 to 100 scale), Lambsquarters: 50
lambsquarters; [5]
  Lambsquarters plant response rating: 20
lambsquarters; [7]
  Lambsquarters plant response rating: 40
Surinam grass; [4]
  Plant response rating (0 to 100 scale), Surinam Grass: 40
Surinam grass; [5]
  Surinam Grass plant response rating: 20
Surinam grass; [7]
  Surinam Grass plant response rating: 30
[3]
  Sedge, Umbrella plant response rating: 80
pigweed; [4]
  Plant response rating (0 to 100 scale), Pigweed: 70
pigweed; [5]
  Pigweed plant response rating: 40
pigweed; [7]
  Pigweed plant response rating: 80
rice
  Rice plant response rating: 40
Giant foxtail; [4]
  Plant response rating (0 to 100 scale), Foxtail, Giant: 50
Giant foxtail; [5]
  Foxtail, Giant plant response rating: 40
Giant foxtail; [6]
  Foxtail, Giant plant response rating: 70
blackgrass; [5]
  Blackgrass plant response rating: 30
blackgrass; [6]
  Blackgrass plant response rating: 40

## C=CCNC(=O)c1cccc(NC(=O)c2cc(C(C)(C)C)nn2CC)c1 [Compound 46]
cocklebur; [8]
  Cocklebur plant response rating: 30
cocklebur; [9]
  Plant response rating, Cocklebur: 90
cocklebur; [10]
  Cocklebur plant response rating: 30
Barnyardgrass [1]; visual rating, 13 to 15 days
  Barnyardgrass plant response rating: 90
corn; [8]
  Corn plant response rating: 20
corn; [9]
  Plant response rating, Corn: 30
corn; [10]
  Corn plant response rating: 10
morningglory; [8]
  Morningglory plant response rating: 0
morningglory; [9]
  Plant response rating, Morningglory: 90
morningglory; [10]
  Morningglory plant response rating: 20
morningglory; [11]
  Plant response rating, Morningglory: 10
ducksalad; visual rating, 13 to 15 days
  Ducksalad plant response rating: 90
Wild oat; Postemergence, 125 g ai/ha
  Oat, Wild plant response rating: 0
Wild oat; Postemergence, 500 g ai/ha, visual rating after 13 to 15 days
  Plant response rating, Oat, Wild: 10
Large crabgrass; [8]
  Crabgrass, Large plant response rating: 30
Large crabgrass; [9]
  Plant response rating, Crabgrass, Large: 90
Large crabgrass; [10]
  Crabgrass, Large plant response rating: 100
Barnyardgrass [2]; [8]
  Barnyardgrass plant response rating: 10
Barnyardgrass [2]; [9]
  Plant response rating, Barnyardgrass: 50
Barnyardgrass [2]; [10]
  Barnyardgrass plant response rating: 100
wheat; [9]
  Plant response rating, Wheat: 30
lambsquarters; [8]
  Lambsquarters plant response rating: 80
lambsquarters; [9]
  Plant response rating, Lambsquarters: 90
lambsquarters; [10]
  Lambsquarters plant response rating: 100
lambsquarters; [11]
  Plant response rating, Lambsquarters: 100
Surinam grass; [9]
  Plant response rating, Surinam Grass: 40
Surinam grass; [10]
  Surinam Grass plant response rating: 70
Surinam grass; [11]
  Plant response rating, Surinam Grass: 20
[3]; visual rating, 13 to 15 days
  Sedge, Umbrella plant response rating: 80
pigweed; [9]
  Plant response rating, Pigweed: 90
pigweed; [10]
  Pigweed plant response rating: 100
pigweed; [11]
  Plant response rating, Pigweed: 100
rice; visual rating, 13 to 15 days
  Rice plant response rating: 70
Giant foxtail; [8]
  Foxtail, Giant plant response rating: 30
Giant foxtail; [9]
  Plant response rating, Foxtail, Giant: 40
Giant foxtail; [10]
  Foxtail, Giant plant response rating: 100
Giant foxtail; [11]
  Plant response rating, Foxtail, Giant: 60
blackgrass; [8]
  Blackgrass plant response rating: 10
blackgrass; [9]
  Plant response rating, Blackgrass: 20
